In patent US8906914B2, “Ethylene diamine modulators of fatty acid hydrolase” (priority 2009, dated 2014):
Where a name gives a salt, the structure may show the parent alone.

Key:
[1] = system: spasticity; settings: Baker 2001; cited from earlier work
[2] = system: neuropathic pain; settings: rats; WO 02/087569; cited from earlier work
[3] = system: acute thermal nociception; settings: rats; WO 02/087569; cited from earlier work
[4] = target: T1, FAAH (Homo sapiens, UniProt O00519); test: Human FAAH assay (Assay Method 1), 3H-anandamide hydrolysis in cell homogenate; assay type: biochemical; set-up: expressed in transfected cells; alternatively T84 frozen cell pellets (endogenous FAAH)
T1 sequence (O00519 1-579): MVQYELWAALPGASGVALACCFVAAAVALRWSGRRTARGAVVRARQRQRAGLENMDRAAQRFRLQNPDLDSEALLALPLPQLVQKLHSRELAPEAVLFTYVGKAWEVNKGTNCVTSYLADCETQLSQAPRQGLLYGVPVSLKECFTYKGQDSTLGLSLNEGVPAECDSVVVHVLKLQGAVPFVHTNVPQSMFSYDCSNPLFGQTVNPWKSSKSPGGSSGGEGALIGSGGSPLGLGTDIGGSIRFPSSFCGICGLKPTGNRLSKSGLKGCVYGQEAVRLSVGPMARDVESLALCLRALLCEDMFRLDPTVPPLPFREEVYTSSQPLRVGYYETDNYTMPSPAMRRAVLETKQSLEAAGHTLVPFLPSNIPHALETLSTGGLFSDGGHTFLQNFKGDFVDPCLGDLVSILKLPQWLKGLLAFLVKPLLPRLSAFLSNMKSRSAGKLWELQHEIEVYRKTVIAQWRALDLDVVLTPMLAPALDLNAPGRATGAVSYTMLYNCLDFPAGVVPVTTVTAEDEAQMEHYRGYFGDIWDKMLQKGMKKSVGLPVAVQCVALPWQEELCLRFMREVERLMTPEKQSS
Outline: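 Homogenate of SK-N-MC cells stably transfected with human FAAH, incubated with compound and 80 nM (final) 3H-anandamide for 1 h at rt. Released 3H-ethanolamine separated from substrate on activated charcoal by centrifugation and counted by scintillation; ">" values denote solubility limit or top concentration tested.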

[5] = target: T2, Rat FAAH-1 (Rattus norvegicus, UniProt P97612); test: Rat FAAH-1 assay (Assay Method 2), 3H-anandamide hydrolysis in cell homogenate; assay type: biochemical
T2 construct: expressed in transfected cells
T2 sequence (P97612 1-579): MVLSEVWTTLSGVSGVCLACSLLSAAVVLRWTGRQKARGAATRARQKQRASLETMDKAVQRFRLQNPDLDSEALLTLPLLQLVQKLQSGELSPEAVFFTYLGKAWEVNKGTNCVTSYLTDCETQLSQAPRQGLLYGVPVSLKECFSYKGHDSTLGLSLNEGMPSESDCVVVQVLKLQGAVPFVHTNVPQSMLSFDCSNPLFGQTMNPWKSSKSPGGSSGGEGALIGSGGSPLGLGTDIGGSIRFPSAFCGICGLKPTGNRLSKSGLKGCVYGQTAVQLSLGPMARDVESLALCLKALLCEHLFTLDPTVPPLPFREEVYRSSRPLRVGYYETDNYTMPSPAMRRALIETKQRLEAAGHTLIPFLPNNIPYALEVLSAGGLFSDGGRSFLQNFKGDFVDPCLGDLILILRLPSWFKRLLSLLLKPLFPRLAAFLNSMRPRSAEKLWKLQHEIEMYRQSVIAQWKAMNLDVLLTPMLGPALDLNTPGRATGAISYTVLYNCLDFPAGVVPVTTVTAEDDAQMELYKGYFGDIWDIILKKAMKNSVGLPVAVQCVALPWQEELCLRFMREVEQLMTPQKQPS
Outline: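 Homogenate of SK-N-MC cells stably transfected with rat FAAH cDNA, incubated with test compound and 80 nM final 3H-anandamide (ethanolamine-labelled) for 1 h at rt. Released 3H-ethanolamine separated from substrate on activated charcoal filters by centrifugation and counted by scintillation.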

[6] = target: T1, FAAH; settings: reported; cited from earlier work
[7] = system: thermal nociception; settings: rats; WO 04/033652; cited from earlier work
[8] = system: thermal nociception; settings: rat; cited from earlier work
[9] = system: nociception; settings: rat; Kathuria 2003; cited from earlier work
[10] = system: anxiety; settings: rats; Kathuria 2003; cited from earlier work

Row | Structure (SMILES) | IC50 [4] | IC50 [5] | further results
1 | CCCCCCCCCCCCCCCCS(=O)(=O)F [AM374] |  |  | spasticity in CREAE mice [1]: significantly reduce spasticity
2 | Cc1nc(-c2ccccc2)c(-c2ccccc2)n1CCCCCCNC(=O)Oc1ccccc1F [BMS-1] |  |  | analgesic effect in Chung spinal nerve ligation model [2]: analgesic effect; analgesic effect in Hargraves test [3]: analgesic effect
3 | COc1ccccc1[C@@H](N)CNc1cc(-c2ccc(C(F)(F)F)c(Cl)c2)ncn1 [Example 56, (1R)—N^2-[6-(3-Chloro-4-trifluoromethyl-phenyl)-pyrimidin-4-yl]-1-(2-methoxy-phenyl)-ethane-1,2-diamine] | 1200 nM | 6000 nM | 
4 | CS(=O)(=O)c1ccc([C@@H](N)CNc2cc(-c3ccc(C(F)(F)F)c(Cl)c3)ncn2)cc1 [Example 63, (1R)—N^2-[6-(3-Chloro-4-trifluoromethyl-phenyl)-pyrimidin-4-yl]-1-(4-methanesulfonyl-phenyl)-ethane-1,2-diamine] | > 10000 nM | > 10000 nM | 
5 | N[C@@H](CNc1cc(-c2ccc(OC(F)(F)F)c(F)c2)ncn1)c1ccc(F)cc1 [Example 64, (1R)—N^2-1-(4-Fluoro-phenyl)-[6-(3-fluoro-4-trifluoromethoxy-phenyl)-pyrimidin-4-yl]-ethane-1,2-diamine, trifluoroacetic acid salt] | 66 nM | 75 nM | 
6 | N[C@@H](CNc1cc(-c2ccc3c(C(F)(F)F)noc3c2)ncn1)c1ccc(F)cc1 [Example 65, (1R)—N^2-1-(4-Fluoro-phenyl)-[6-(3-trifluoromethyl-benzo[d]isoxazol-6-yl)-pyrimidin-4-yl]ethane-1,2-diamine, trifluoroacetic acid salt] | 45 nM | 57 nM | 
7 | O=C(CCCCCCc1ccccc1)c1ncc(-c2ccccn2)o1 [OL-135] |  |  | inhibition of FAAH [6]: potent inhibitor; analgesic activity in tail emersion test [7]: analgesic activity; analgesic efficacy/activity in hot plate test [8]: analgesic activity
8 | NC(=O)c1cccc(-c2cccc(OC(=O)NC3CCCCC3)c2)c1 [URB-597] |  |  | analgesic efficacy/activity in hot plate test [8]: analgesic efficacy; analgesic efficacy in formalin test [9]: analgesic efficacy; efficacy in zero plus maze model of anxiety [10]: efficacy

Further lines, with some results ahead:

Row | IC50 [4] | IC50 [5] | Structure (SMILES) | further results
9 | 3000 nM | 3000 nM | N[C@H](CNc1cc(-c2ccc(C(F)(F)F)c(Cl)c2)ncn1)c1ccc(F)c(Cl)c1 [Example 46, (1S)—N^2-1-(3-Chloro-4-fluoro-phenyl)-[6-(3-chloro-4-trifluoromethyl-phenyl)-pyrimidin-4-yl]-ethane-1,2-diamine] | 
10 | 120 nM | 115 nM | N[C@@H](CNc1cc(-c2ccc(C(F)(F)F)c(Cl)c2)ncn1)c1ccc(F)c(Cl)c1 [Example 47, (1R)—N^2-1-(3-Chloro-4-fluoro-phenyl)-[6-(3-chloro-4-trifluoromethyl-phenyl)-pyrimidin-4-yl]-ethane-1,2-diamine] | 
11 | 3000 nM | 3000 nM | N#Cc1cccc([C@H](N)CNc2cc(-c3ccc(C(F)(F)F)c(Cl)c3)ncn2)c1 [Example 48, (1S)-3-{1-Amino-2-[6-(3-chloro-4-trifluoromethyl-phenyl)-pyrimidin-4-ylamino]-ethyl}-benzonitrile] | 
12 | 1000 nM | 770 nM | N#Cc1cccc([C@@H](N)CNc2cc(-c3ccc(C(F)(F)F)c(Cl)c3)ncn2)c1 [Example 49, (1R)-3-{1-Amino-2-[6-(3-chloro-4-trifluoromethyl-phenyl)-pyrimidin-4-ylamino]-ethyl}-benzonitrile] | 
13 | 125 nM | 40 nM | N[C@@H](CNc1cc(-c2ccc(C(F)(F)F)c(Cl)c2)ncn1)c1ccc2ccccc2c1 [Example 51, (1R)—N^2-[6-(3-Chloro-4-trifluoromethyl-phenyl)-pyrimidin-4-yl]-1-naphthalen-2-yl-ethane-1,2-diamine] | 
14 | 130 nM | 240 nM | N#Cc1ccc([C@@H](N)CNc2cc(-c3ccc(C(F)(F)F)c(Cl)c3)ncn2)cc1F [Example 52, (1R)-4-{1-Amino-2-[6-(3-chloro-4-trifluoromethyl-phenyl)-pyrimidin-4-ylamino]-ethyl}-2-fluoro-benzonitrile] | 
15 | 220 nM | 150 nM | CSc1ccc([C@@H](N)CNc2cc(-c3ccc(C(F)(F)F)c(Cl)c3)ncn2)cc1 [Example 54, (1R)—N^2-[6-(3-Chloro-4-trifluoromethyl-phenyl)-pyrimidin-4-yl]-1-(4-methylsulfanyl-phenyl)-ethane-1,2-diamine] | 
16 | 180 nM | 130 nM | N[C@@H](CNc1cc(-c2ccc(C(F)(F)F)c(Cl)c2)ncn1)c1ccc(SC(F)(F)F)cc1 [Example 61, (1R)—N^2-[6-(3-Chloro-4-trifluoromethyl-phenyl)-pyrimidin-4-yl]-1-(4-trifluoromethylsulfanyl-phenyl)-ethane-1,2-diamine] | 
17 | 320 nM | 300 nM | N#Cc1cc([C@@H](N)CNc2cc(-c3ccc(C(F)(F)F)c(Cl)c3)ncn2)ccc1F [Example 62, (1R)-5-{1-Amino-2-[6-(3-chloro-4-trifluoromethyl-phenyl)-pyrimidin-4-ylamino]-ethyl}-2-fluoro-benzonitrile] | 
